Type in all cases: functional
The test system of test [1] is Rhodotorula glutinis. As to the kind of experiment: Antimicrobial activity against Rhodotorula glutinis ATCC 201718 assessed as relative growth at 50 ug/mL after 24 to 48 hrs relative to control.
In test [2] the test system is Saccharomyces cerevisiae. The test is described as follows: Antimicrobial activity against Saccharomyces cerevisiae CBS 1394 assessed as relative growth at 50 ug/mL after 24 to 48 hrs relative to control.
In test [3] the test system is Rhodotorula glutinis. As to the kind of experiment: Antimicrobial activity against Rhodotorula glutinis ATCC 201718 assessed as relative growth at 100 ug/mL after 24 to 48 hrs relative to control.
Test [4] relates to Saccharomyces cerevisiae. The test is described as follows: Antimicrobial activity against Saccharomyces cerevisiae CBS 1394 assessed as relative growth at 100 ug/mL after 24 to 48 hrs relative to control.

As for `CC(=O)c1ccc2c(c1)C=C/C(=C/Cl)CO2`, the Activity was 58% in the test with Rhodotorula glutinis [1], 91% in the test with Saccharomyces cerevisiae [2], 40% with Rhodotorula glutinis [3] and 84% in the test on Saccharomyces cerevisiae [4].

`O=Cc1ccc2c(c1)C=C/C(=C/Cl)CO2`: the Activity in the test on Rhodotorula glutinis [1] amounted to 96%; in the test on Saccharomyces cerevisiae [2] it was 91%; in the test with Rhodotorula glutinis [3] it was 65%; with Saccharomyces cerevisiae [4], 87%.

For the compound `OCc1ccc2c(c1)C=C/C(=C/Cl)CO2`, the Activity is recorded as 5.5% in the test on Rhodotorula glutinis [1], 89% with Saccharomyces cerevisiae [2], less than 1% in the test with Rhodotorula glutinis [3] and 1% with Saccharomyces cerevisiae [4].

The values above are taken from ChEMBL document CHEMBL1148125, “Total synthesis and bioactivity of some naturally occurring pterulones” (2002).
